Reference: US7432227B2, “6-alkyl or alkenyl-4-aminopicolinates and their use as herbicides” (Dow AgroSciences LLC, priority 2003, dated 2008)

Columns and labels:
[1] = tested on: Cocklebur (Xanthium strumarium); assay: Postemergence herbicidal activity, Cocklebur; format: in vivo; details: post-emergence, 336 h, rate 250 ppm, visual score after 2 weeks, 0 = no injury, 100 = complete kill, read-out: Post-emergent % control XANST
Procedure: (§1) Seeds of the desired test plant species were planted in Grace-Sierra MetroMix® 306 planting mixture, which typically has a pH of 6.0 to 6.8 and an organic matter content of about 30 percent, in plastic pots with a surface area of 64 square centimeters. When required to ensure good germination and healthy plants, a fungicide treatment and/or other chemical or physical treatment was applied. The plants were grown for 7-21 days in a greenhouse with an approximate 15 hr photoperiod which was maintained at about 23-29° C. during the day and 22-28° C. during the night. Nutrients and water were added on a regular basis and supplemental lighting was provided with overhead metal halide 1000-Watt lamps as necessary. The plants were employed for testing when they reached the first or second true leaf stage. A weighed amount, determined by the highest rate to be tested, of each test compound was placed in a 20 mL glass vial and was dissolved in 4 mL of a 97:3 v/v (volume/volume) mixture of acetone and dimethyl sulfoxide (DMSO) to obtain concentrated stock solutions. […] The concentrated stock solutions obtained were diluted with an aqueous mixture containing acetone, water, isopropyl alcohol, DMSO, Atplus 411F crop oil concentrate, and Triton X-155 surfactant in a 48.5:39:10:1.5:1.0:0.02 v/v ratio to obtain spray solutions of known concentration. The solutions containing the highest concentration to be tested were prepared by diluting 2 mL aliquots of the stock solution with 13 mL of the mixture and lower concentrations were prepared by serial dilution of the stock solution. Approximately 1.5 mL aliquots of each solution of known concentration were sprayed evenly onto each of the test plant pots using a DeVilbiss atomizer driven by compressed air pressure of 2 to 4 psi (140 to 280 kilopascals) to obtain thorough coverage of each plant. Control plants were sprayed in the same manner with the aqueous mixture. In this test an application rate of 1 ppm results in the application of approximately 1 g/Ha. The treated plants and control plants were placed in a greenhouse as described above and watered by sub-irrigation to prevent wash-off of the test compounds. After 2 weeks the condition of the test plants as compared with that of the untreated plants was determined visually and scored on a scale of 0 to 100 percent where 0 corresponds to no injury and 100 corresponds to complete kill.

[2] = tested on: Lambsquarter (Chenopodium album); assay: Postemergence herbicidal activity, Lambsquarter; format: in vivo; details: post-emergence, 336 h, visual score after 2 weeks, 0 = no injury, 100 = complete kill, read-out: Post-emergent % control CHEAL; for pest or weed control at 250 ppm: rate 250 ppm
Procedure: as §1

[3] = tested on: Barnyardgrass (Echinochloa crus-galli); assay: Postemergence herbicidal activity, Barnyardgrass; format: in vivo; details: post-emergence, 336 h, visual score after 2 weeks, 0 = no injury, 100 = complete kill, read-out: Post-emergent % control ECHCG; for pest or weed control at 250 ppm: rate 250 ppm
Procedure: as §1

[4] = tested on: Giant Foxtail (Setaria faberi); assay: Postemergence herbicidal activity, Giant Foxtail; format: in vivo; details: post-emergence, 336 h, visual score after 2 weeks, 0 = no injury, 100 = complete kill, read-out: Post-emergent % control SETFA; for pest or weed control at 250 ppm: rate 250 ppm
Procedure: as §1

[5] = tested on: Pigweed (redroot) (Amaranthus retroflexus); assay: Postemergence herbicidal activity, Pigweed (redroot); format: in vivo; details: visual score after 2 weeks, 0 = no injury, 100 = complete kill
Procedure: as §1

[6] = tested on: Corn (#14 3377) (Zea mays); assay: Postemergence herbicidal activity, selectivity to corn; format: in vivo; details: crop (corn) selectivity, visual score after 2 weeks, 0 = no injury
Procedure: as §1

[7] = tested on: Lambsquarter (Chenopodium album); assay: Preemergence herbicidal activity, Lambsquarter; format: in vivo; details: pre-emergence, 504 h, visual score after 3 weeks, 100 = complete kill or no germination, read-out: Pre-emergent % control CHEAL; for pest or weed control at 280 ppm: rate 280 ppm
Text: (§2) Seeds of the desired test plant species were planted in a soil matrix prepared by mixing a loam soil (43 percent silt, 19 percent clay, and 38 percent sand, with a pH of about 8.1 and an organic matter content of about 1.5 percent) and sand in a 70 to 30 ratio. The soil matrix was contained in plastic pots with a surface area of 113 square centimeters. When required to ensure good germination and healthy plants, a fungicide treatment and/or other chemical or physical treatment was applied. A weighed amount, determined by the highest rate to be tested, of each test compound was placed in a 20 mL glass vial and was dissolved in 4 mL of a 97:3 v/v (volume/volume) mixture of acetone and dimethyl sulfoxide to obtain concentrated stock solutions. […] The stock solutions obtained were diluted with a 99.9:0.1 mixture of water and Tween® […] surfactant to obtain application solutions of known concentration. The solutions containing the highest concentration to be tested were prepared by diluting 2 mL aliquots of the stock solution with 15 mL of the mixture and lower concentrations were prepared by serial dilution of the stock solution. A 2.5 mL aliquot of each solution of known concentration was sprayed evenly onto the soil surface (113 sq. cm) of each seeded pot using a Cornwall 5.0 mL glass syringe fitted with a TeeJet TN-3 hollow cone nozzle to obtain thorough coverage of the soil in each pot. Control pots were sprayed in the same manner with the aqueous mixture. The treated pots and control pots were placed in a greenhouse maintained with an approximate 15 hr photoperiod and temperatures of about 23-29° C. during the day and 22-28° C. during the night. Nutrients and water were added on a regular basis and supplemental lighting was provided with overhead metal halide 1000-Watt lamps as necessary. The water was added by top-irrigation. After 3 weeks the condition of the test plants that germinated and grew as compared with that of the untreated plants that germinated and grew was determined visually and scored on a scale of 0 to 100 percent where 0 corresponds to no injury and 100 corresponds to complete kill or no germination.

[8] = tested on: Ivyleaf Morningglory (Ipomoea hederacea); assay: Preemergence herbicidal activity, Ivyleaf Morningglory; format: in vivo; details: pre-emergence, 504 h, visual score after 3 weeks, 100 = complete kill or no germination, read-out: Pre-emergent % control IPOHE; for pest or weed control at 280 ppm: rate 280 ppm
Text: as §2

[9] = tested on: Crabgrass(large) (Digitaria sanguinalis); assay: Preemergence herbicidal activity, Crabgrass(large); format: in vivo; details: pre-emergence, 504 h, visual score after 3 weeks, 100 = complete kill or no germination, read-out: Pre-emergent % control DIGSA; for pest or weed control at 280 ppm: rate 280 ppm
Text: as §2

[10] = tested on: Giant Foxtail (Setaria faberi); assay: Preemergence herbicidal activity, Giant Foxtail; format: in vivo; details: pre-emergence, 504 h, visual score after 3 weeks, 100 = complete kill or no germination, read-out: Pre-emergent % control SETFA; for pest or weed control at 280 ppm: rate 280 ppm
Text: as §2

[11] = tested on: Wheat(var.Merica) (Triticum aestivum); assay: Postemergence herbicidal activity, selectivity to wheat; format: in vivo; details: crop (wheat) selectivity, visual score after 2 weeks, 0 = no injury
Procedure: as §1, with “Control plants were sprayed in the same manner with the aqueous mixture. In this test an application rate of 1 ppm results in the application of approximately 1 g/Ha. The treated plants and control plants were placed in a greenhouse as described above and watered by sub-irrigation to prevent wash-off of the test compounds.” left out

SMILES	pest or weed control at 250 ppm [1]	pest or weed control at 250 ppm [2]	pest or weed control at 250 ppm [3]	pest or weed control at 250 ppm [4]	Post-emergent % control AMARE ([5]; rate 250 ppm)	Post-emergent % control ZEAMX ([6]; rate 250 ppm)	Post-emergent % control TRZAS ([11]; rate 250 ppm)	pest or weed control at 280 ppm [7]	pest or weed control at 280 ppm [8]	pest or weed control at 280 ppm [9]	pest or weed control at 280 ppm [10]	further results
COCc1cc(N)c(Cl)c(C(=O)O)n1 [Compound 9, 4-Amino-3-chloro-6-(methoxymethyl)pyridine-2-carboxylic acid]	80%	80%	0%	0%	90%	0%	–	–	–	–	–	pest or weed control at 560 ppm ([7]; rate 560 ppm): 90%; pest or weed control at 560 ppm ([8]; rate 560 ppm): 50%; pest or weed control at 560 ppm ([9]; rate 560 ppm): 10%; pest or weed control at 560 ppm ([10]; rate 560 ppm): 10%
CCc1cc(N)c(Cl)c(C(=O)O)n1 [Compound 6, 4-Amino-3-chloro-6-ethylpyridine-2-carboxylic acid]	98%	90%	0%	0%	100%	0%	0%	90%	100%	15%	0%	melting point: 140 to 142 °C
CCc1cc(N)c(Cl)c(C(=O)OC)n1 [Compound 4, Methyl 4-amino-3-chloro-6-ethylpyridine-2-carboxylate]	95%	100%	0%	0%	98%	0%	0%	98%	100%	0%	0%	–
COC(=O)c1nc(C)cc(N)c1Cl [Compound 13, Methyl 4-amino-3-chloro-6-methylpyridine-2-carboxylate]	–	–	–	–	–	–	–	–	–	–	–	pest or weed control at 254 ppm ([2]; rate 254 ppm): 70%; pest or weed control at 254 ppm ([3]; rate 254 ppm): 0%; pest or weed control at 254 ppm ([4]; rate 254 ppm): 0%; Post-emergent % control AMARE ([5]; rate 254 ppm): 90%; Post-emergent % control TRZAS ([11]; rate 254 ppm): 0%; Post-emergent % control ZEAMX ([6]; rate 254 ppm): 0%; pest or weed control at 573 ppm ([7]; rate 573 ppm): 100%; pest or weed control at 573 ppm ([8]; rate 573 ppm): 90%; pest or weed control at 573 ppm ([9]; rate 573 ppm): 0%; pest or weed control at 573 ppm ([10]; rate 573 ppm): 0%
